Experimental data taken from patent publication US5679321A, “Sialic acid/fucose based medicaments” (Glycomed Incorporated, priority 1995, dated 1997).

Columns and labels:
L-selectin IgG chimera = target: T1, L-selectin IgG chimera (Homo sapiens, UniProt P14151); assay: ELISA: blocking of L-selectin IgG chimera binding to 2,3sLex glycolipid
T1 sequence (P14151 39-332 limits assumed): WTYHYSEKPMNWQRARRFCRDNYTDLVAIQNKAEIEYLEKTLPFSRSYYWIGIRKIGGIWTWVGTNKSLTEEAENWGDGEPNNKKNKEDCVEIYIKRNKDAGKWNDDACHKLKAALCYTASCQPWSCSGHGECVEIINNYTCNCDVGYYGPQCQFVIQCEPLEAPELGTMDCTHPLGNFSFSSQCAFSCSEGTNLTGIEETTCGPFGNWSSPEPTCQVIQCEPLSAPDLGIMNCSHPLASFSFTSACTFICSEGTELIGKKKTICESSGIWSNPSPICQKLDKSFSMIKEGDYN
Excerpt: (§1) An ELISA assay was employed that uses recombinant fusion proteins composed of extracellular portions of the human selectins joined to human immunoglobulin heavy chain CH3, CH2, and hinge regions. See, for example, Walz et al., Science (1990) 250:1132; Aruffo et al., Cell (1991) 67:35; Aruffo et al., Proc. Natl. Acad. Sci. USA (1992) 89:2292. The assay is well known in the art, and generally consists of the following three steps:
(§2) I. 2,3sLex glycolipid (25 picomole/well) was transferred into microtiter wells as solutions and then evaporated off. Excess, which remained unattached, was washed off with water. The wells were then blocked with 5% BSA at room temperature for an hour and then washed with PBS containing 1 mM calcium.
II. […]
(§3) The positive control is the signal produced by the soluble receptor when it is allowed to react with 2,3sLex glycolipid in the microtiter wells in the absence of any inhibitor. […] The signal produced by the receptor that had been previously treated with an inhibitor (recorded as O.D.), was divided by the signal produced by the positive control and multiplied by 100 to calculate the % receptor bound to the well, or as expressed in the figures, the per cent of control binding. […]

[1] = tested on: neutrophil migration to the peritoneal cavity; assay: murine thioglycollate induced peritonitis model; format: in vivo, female Swiss Webster mice; conditions: FIG. 7; for inhibition of neutrophil migration into the peritoneum: compound in PBS by tail vein, thioglycollate intraperitoneally, cells counted after three hours
Excerpt: The efficaciousness of GM 1221, and GM 1398 was shown using a murine thioglycollate induced peritonitis model. The assay materials and methods are known in the art, or are generally described by Lewinsohn, D. et al., J. Immun., 138:4313-4321 (1987), or Watson, S. et.al., Nature 349:164-166 (1991).
This assay measures the abili:ty of the compounds to inhibit neutrophil migation to the peritoneal cavity, the migration being initiated by the presence of thioglycollate in the peritoneal cavity. Thioglycollate is a known and effective inflammatory agent that causes neutrophil migration into the mouse peritoneum when it is administered intraperitoneally. Lewinsohn, D. et al., J. Immun. (1987) 138:4313-4321.
Briefly, female Swiss Webster mice weighing about 25 grams were injected in the tail vein with 200 ul of phosphate buffered saline (PBS) with or without the appropriate compound. The pH of the solutions was adjusted to neutrality by the addition of either NaOH or HCL and sterilized by filtration through a 0.2 u filter.
Immediately following injection with the appropriate compound or PBS, the mice were injected intraperitoneally with 1 ml of thioglycollate medium prepared as described by the manufacturer, BBL. Three hours following injection of the thioglycollate solution the mice were sacrificed by CO2 asphyxiation, and the number of cells in the peritoneum removed by lavage with 5 ml of heparinized (5U/ml) 0.9%. sodium chloride solution containing 0.1% bovine serum albumin. Cell number was determined using a Coulter Counter. The cells were prepared for counting by diluting the lavage fluid with 1:50 of a commercial physiological isotonic solution, Isoton II, and the cells lysed by adding S/P Lysing and Hemoglobin Reagent (1:100 final dilution). Cell nuclei were counted in a sized window with lower and upper limits set at 3.9 and 5.7 um, respectively.

E-selectin IgG chimera = assay: ELISA: blocking of E-selectin IgG chimera binding to 2,3sLex glycolipid; set-up: species or system human; conditions: FIG. 4; several concentrations
Excerpt: as §1, §2
II. […]
as §3

CC(OCCCCCCOC1O[C@@H](C)[C@@H](O)[C@@H](O)[C@@H]1O)C(=O)O (stereo partly drawn) [GM 1221]
inhibitory activity on L-selectin binding at all four concentrations tested (L-selectin IgG chimera; FIG. 6, all four concentrations of the compound tested): significant inhibitory activity
inhibition of neutrophil migration into the peritoneum [1]: inhibit neutrophil migration into the peritoneum

CC(=O)NC1C(O)CC(OCCCCCCOC2OC(C)C(O)C(O)C2O)(C(=O)O)OC1C(O)C(O)CO [GM 1398, 1-O-α-Neu5Ac-(6-O-α-L-Fucopyranosyl)-Hexane]
inhibition of E-selectin binding to 2,3sLex glycolipid (per cent of control binding) (E-selectin IgG chimera): inhibit E-selectin binding
inhibition of L-selectin binding to 2,3sLex glycolipid (per cent of control binding) (L-selectin IgG chimera; FIG. 5 and FIG. 6, several concentrations): inhibit L-selectin binding in a concentration dependent manner
inhibition of neutrophil migration into the peritoneum [1]: inhibit neutrophil migration into the peritoneum
more neutrophil migration inhibited than GM 1221 ([1]; relative to GM 1221): about 30%
